Source: EP0320002A1, “Inhalant” (KYORIN SEIYAKU KABUSHIKI KAISHA, priority 1987, dated 1989)
Converted amounts (≈) assume the structure as drawn.

Experiment: solubility of ibudilast in water
Format: physicochemical

solubility: 150 µg/mL (≈ 651 µM)
Structure (SMILES): CC(C)C(=O)c1c(C(C)C)nn2ccccc12 [ibudilast, 3-isobutyryl-2-isopropylpyrazolo[1,5-a]pyridine]
